Patent US10844077B2, “Thiazolyl-containing compounds for treating proliferative diseases” (Dana-Farber Cancer Institute, Inc., priority 2014, dated 2020)
Like-named read-outs stand apart in the source and are kept apart here.

Columns and labels:
Type in all cases: binding
[1] = biological target: broad panel of kinases (Homo sapiens, UniProt P29317); conditions: EPHA2; 1 μM
[2] = biological target: broad panel of kinases (Homo sapiens, UniProt Q13043); conditions: MST1; 1 μM
[3] = biological target: broad panel of kinases (Homo sapiens, UniProt Q86Z02); conditions: HIPK1; 1 μM
[4] = biological target: broad panel of kinases (Homo sapiens, UniProt Q9H4A3); conditions: WNK1; 1 μM
[5] = biological target: broad panel of kinases (Homo sapiens, UniProt Q9H422); conditions: HIPK3; 1 μM
[6] = biological target: broad panel of kinases (Homo sapiens, UniProt O75582); conditions: 1 μM
[7] = biological target: broad panel of kinases (Homo sapiens, UniProt P10721, V559D); conditions: KIT(V559D); 1 μM
[8] = biological target: broad panel of kinases (Homo sapiens, UniProt P08581); conditions: MET; 1 μM
[9] = biological target: broad panel of kinases (Homo sapiens, UniProt P04629); conditions: TRKA; 1 μM
[10] = biological target: broad panel of kinases (Homo sapiens, UniProt O43318); conditions: TAK1; 1 μM
[11] = biological target: broad panel of kinases (Homo sapiens, UniProt O75747); conditions: PIK3C2G; 1 μM
[12] = biological target: broad panel of kinases (Homo sapiens, UniProt P00519, F317L); conditions: 1 μM
[13] = biological target: broad panel of kinases (Homo sapiens, UniProt Q8N5S9); conditions: CAMKK1; 1 μM
[14] = biological target: broad panel of kinases (Homo sapiens, UniProt P49761); conditions: CLK3; 1 μM
[15] = biological target: broad panel of kinases (Homo sapiens, UniProt Q9BYP7); conditions: WNK3; 1 μM
[16] = biological target: broad panel of kinases (Homo sapiens, UniProt O96013); conditions: PAK4; 1 μM
[17] = biological target: broad panel of kinases (Homo sapiens, UniProt P08581, Y1235D); conditions: MET(Y1235D); 1 μM
[18] = biological target: broad panel of kinases (Homo sapiens, UniProt P57078); conditions: RIPK4; 1 μM
[19] = biological target: broad panel of kinases (Homo sapiens, UniProt Q9UPE1); conditions: SRPK3; 1 μM
[20] = biological target: broad panel of kinases (Homo sapiens, UniProt Q8IW41)
[21] = biological target: broad panel of kinases (Homo sapiens, UniProt Q92918); conditions: HPK1; 1 μM
[22] = biological target: broad panel of kinases (Homo sapiens, UniProt P27037); conditions: ACVR2A; 1 μM
[23] = biological target: broad panel of kinases (Homo sapiens, UniProt Q14012); conditions: CAMK1; 1 μM
[24] = biological target: broad panel of kinases (Homo sapiens, UniProt P30530); conditions: AXL; 1 μM
[25] = biological target: broad panel of kinases (Homo sapiens, UniProt Q16288); conditions: TRKC; 1 μM
[26] = biological target: broad panel of kinases (Homo sapiens, UniProt Q9Y6E0); conditions: MST3; 1 μM
[27] = biological target: broad panel of kinases (Homo sapiens, UniProt Q9P289); conditions: MST4; 1 μM
[28] = biological target: broad panel of kinases (Homo sapiens, UniProt P49841); conditions: GSK3B; 1 μM
[29] = biological target: broad panel of kinases (Homo sapiens, UniProt Q9Y2K2); conditions: QSK; 1 μM
[30] = biological target: broad panel of kinases (Homo sapiens, UniProt Q16513); conditions: PKN2; 1 μM
[31] = biological target: broad panel of kinases (Homo sapiens, UniProt O60674); conditions: JAK2(JH1domain-catalytic); 1 μM
[32] = biological target: broad panel of kinases (Homo sapiens, UniProt P07949, M918T); conditions: RET(M918T); 1 μM
[33] = biological target: broad panel of kinases (Homo sapiens, UniProt P45984); conditions: JNK2; 1 μM
[34] = biological target: broad panel of kinases (Homo sapiens, UniProt Q9H1R3); conditions: MYLK2; 1 μM
[35] = biological target: broad panel of kinases (Homo sapiens, UniProt P00533, L858R/T790M); conditions: EGFR(L858R, T790M); 1 μM
[36] = biological target: broad panel of kinases (Homo sapiens, UniProt P00533, L858R); conditions: EGFR(L858R); 1 μM
Chain of broad panel of kinases (Homo sapiens, UniProt P00533, L858R) (P00533 25-1210 L858R limits assumed): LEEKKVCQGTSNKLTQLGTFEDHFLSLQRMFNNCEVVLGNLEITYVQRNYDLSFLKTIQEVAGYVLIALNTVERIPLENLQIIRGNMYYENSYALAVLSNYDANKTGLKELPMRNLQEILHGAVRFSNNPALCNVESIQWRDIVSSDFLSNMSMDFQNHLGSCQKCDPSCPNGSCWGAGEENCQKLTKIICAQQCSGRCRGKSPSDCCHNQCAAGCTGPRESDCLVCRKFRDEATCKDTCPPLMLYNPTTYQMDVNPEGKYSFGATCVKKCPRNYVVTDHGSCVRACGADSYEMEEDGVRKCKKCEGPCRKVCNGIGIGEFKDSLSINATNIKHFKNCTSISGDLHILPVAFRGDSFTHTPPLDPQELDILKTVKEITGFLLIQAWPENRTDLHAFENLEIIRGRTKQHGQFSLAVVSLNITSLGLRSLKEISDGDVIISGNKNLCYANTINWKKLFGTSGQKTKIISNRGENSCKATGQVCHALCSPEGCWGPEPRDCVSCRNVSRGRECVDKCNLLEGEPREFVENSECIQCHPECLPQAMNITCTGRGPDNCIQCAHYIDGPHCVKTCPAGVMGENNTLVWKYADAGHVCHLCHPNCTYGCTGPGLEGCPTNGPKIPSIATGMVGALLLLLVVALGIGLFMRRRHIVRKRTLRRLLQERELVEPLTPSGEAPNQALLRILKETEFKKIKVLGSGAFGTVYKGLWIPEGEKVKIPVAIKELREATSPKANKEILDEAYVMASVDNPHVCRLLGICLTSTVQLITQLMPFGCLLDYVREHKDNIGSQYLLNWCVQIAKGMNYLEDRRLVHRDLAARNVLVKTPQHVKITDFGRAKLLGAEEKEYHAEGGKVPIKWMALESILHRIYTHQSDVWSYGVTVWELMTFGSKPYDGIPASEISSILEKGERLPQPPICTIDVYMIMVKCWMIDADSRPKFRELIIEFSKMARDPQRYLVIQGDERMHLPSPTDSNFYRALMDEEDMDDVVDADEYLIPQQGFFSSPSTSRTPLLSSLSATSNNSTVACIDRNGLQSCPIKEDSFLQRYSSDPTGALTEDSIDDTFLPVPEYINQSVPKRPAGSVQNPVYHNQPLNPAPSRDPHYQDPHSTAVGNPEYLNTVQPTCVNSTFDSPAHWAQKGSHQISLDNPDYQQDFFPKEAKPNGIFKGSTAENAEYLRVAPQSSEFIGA

Chain of broad panel of kinases (Homo sapiens, UniProt P29317) (P29317 24-976 limits assumed): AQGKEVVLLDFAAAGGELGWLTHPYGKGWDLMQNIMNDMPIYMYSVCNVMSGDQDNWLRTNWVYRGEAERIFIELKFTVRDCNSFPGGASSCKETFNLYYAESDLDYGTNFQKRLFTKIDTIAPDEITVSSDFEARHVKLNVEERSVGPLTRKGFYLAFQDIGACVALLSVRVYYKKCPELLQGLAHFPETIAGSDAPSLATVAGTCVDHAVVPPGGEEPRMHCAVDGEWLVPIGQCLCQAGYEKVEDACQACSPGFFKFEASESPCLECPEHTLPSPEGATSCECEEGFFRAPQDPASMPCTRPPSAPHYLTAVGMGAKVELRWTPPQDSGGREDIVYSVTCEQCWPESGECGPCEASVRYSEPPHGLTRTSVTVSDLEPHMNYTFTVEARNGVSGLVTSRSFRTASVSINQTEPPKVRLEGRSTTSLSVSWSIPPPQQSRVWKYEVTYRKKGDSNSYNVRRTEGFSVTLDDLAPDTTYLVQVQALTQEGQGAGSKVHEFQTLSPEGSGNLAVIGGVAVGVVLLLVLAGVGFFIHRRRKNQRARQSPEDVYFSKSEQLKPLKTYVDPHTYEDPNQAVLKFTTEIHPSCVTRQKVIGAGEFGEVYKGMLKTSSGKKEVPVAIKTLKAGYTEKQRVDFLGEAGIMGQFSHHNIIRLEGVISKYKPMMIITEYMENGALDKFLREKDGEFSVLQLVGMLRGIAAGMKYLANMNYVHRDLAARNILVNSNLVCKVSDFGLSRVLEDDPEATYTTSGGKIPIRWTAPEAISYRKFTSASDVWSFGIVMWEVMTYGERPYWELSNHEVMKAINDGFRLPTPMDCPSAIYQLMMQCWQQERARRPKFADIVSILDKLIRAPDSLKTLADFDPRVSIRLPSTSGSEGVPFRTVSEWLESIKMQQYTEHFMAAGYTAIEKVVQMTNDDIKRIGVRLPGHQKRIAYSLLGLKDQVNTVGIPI
Chain of broad panel of kinases (Homo sapiens, UniProt P04629) (P04629 33-796 limits assumed): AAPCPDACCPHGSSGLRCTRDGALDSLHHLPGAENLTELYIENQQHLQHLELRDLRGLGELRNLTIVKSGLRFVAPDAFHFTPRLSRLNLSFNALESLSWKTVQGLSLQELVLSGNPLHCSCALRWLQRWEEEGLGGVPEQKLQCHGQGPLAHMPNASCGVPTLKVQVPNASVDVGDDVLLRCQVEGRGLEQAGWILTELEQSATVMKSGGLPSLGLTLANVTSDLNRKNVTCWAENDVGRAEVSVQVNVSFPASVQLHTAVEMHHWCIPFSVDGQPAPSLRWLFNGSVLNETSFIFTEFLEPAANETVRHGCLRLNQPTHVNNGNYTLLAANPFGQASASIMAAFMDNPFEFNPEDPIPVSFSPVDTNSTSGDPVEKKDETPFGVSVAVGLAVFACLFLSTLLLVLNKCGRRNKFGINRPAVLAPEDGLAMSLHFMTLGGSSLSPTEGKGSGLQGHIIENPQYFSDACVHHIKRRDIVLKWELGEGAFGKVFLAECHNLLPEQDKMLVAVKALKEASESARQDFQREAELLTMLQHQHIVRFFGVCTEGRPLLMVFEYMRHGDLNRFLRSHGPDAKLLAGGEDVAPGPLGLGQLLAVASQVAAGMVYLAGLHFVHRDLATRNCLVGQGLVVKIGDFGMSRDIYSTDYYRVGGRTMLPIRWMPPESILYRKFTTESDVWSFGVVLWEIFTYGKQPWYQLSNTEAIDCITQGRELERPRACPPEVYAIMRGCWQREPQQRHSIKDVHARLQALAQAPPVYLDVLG
Chain of broad panel of kinases (Homo sapiens, UniProt Q9P289) (Q9P289 2-416 limits assumed): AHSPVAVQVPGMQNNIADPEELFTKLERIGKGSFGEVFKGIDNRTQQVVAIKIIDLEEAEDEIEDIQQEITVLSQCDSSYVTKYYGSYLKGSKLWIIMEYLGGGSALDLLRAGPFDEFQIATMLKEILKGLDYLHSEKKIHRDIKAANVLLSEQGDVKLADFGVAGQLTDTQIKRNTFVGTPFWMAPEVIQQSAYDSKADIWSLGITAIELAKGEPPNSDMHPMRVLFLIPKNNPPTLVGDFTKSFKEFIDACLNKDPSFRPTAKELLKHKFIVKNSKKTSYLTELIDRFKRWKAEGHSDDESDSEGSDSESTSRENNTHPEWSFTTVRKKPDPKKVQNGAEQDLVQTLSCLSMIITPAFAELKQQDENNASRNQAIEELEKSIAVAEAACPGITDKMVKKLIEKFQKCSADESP
Chain of broad panel of kinases (Homo sapiens, UniProt P27037) (P27037 20-513 limits assumed): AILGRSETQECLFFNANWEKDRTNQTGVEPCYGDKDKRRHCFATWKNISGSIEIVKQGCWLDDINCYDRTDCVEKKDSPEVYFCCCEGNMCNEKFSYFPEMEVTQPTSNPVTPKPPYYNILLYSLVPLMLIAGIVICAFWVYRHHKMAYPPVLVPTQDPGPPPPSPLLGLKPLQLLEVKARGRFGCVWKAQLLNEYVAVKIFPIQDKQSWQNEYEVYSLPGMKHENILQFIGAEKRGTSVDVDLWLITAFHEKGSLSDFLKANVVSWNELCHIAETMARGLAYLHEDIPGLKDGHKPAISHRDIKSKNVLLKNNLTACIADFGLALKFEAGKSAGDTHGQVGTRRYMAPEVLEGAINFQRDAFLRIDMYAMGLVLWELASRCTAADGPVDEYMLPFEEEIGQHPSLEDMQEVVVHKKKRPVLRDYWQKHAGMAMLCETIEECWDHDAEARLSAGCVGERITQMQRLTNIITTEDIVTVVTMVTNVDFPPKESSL
Chain of broad panel of kinases (Homo sapiens, UniProt Q9H1R3) (Q9H1R3 2-596 limits assumed): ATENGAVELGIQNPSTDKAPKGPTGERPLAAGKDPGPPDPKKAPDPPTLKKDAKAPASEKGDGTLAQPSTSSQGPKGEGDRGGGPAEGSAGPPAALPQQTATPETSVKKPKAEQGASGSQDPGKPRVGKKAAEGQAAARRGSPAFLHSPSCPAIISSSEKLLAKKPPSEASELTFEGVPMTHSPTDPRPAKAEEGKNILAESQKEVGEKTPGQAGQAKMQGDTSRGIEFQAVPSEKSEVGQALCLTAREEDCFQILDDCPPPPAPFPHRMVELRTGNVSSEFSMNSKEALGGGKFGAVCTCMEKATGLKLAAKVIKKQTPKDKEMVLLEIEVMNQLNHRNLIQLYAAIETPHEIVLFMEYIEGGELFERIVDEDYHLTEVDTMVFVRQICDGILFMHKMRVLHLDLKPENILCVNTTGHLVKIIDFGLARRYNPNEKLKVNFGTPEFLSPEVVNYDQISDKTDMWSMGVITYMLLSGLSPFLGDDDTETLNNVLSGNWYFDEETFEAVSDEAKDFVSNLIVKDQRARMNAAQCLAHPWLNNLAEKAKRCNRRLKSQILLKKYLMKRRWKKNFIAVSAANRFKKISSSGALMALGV

SMILES | percent of control binding remaining (lower = stronger binding) [1] | percent of control binding remaining (lower = stronger binding) [2] | percent of control binding remaining (lower = stronger binding) [3] | percent of control binding remaining (lower = stronger binding) [4] | percent of control binding remaining (lower = stronger binding) [5] | percent of control binding remaining (lower = stronger binding) ([6]; RPS6KA5(Kin.Dom.1-N-terminal)) | percent of control binding remaining (lower = stronger binding) ([6]; RPS6KA5(Kin.Dom.2-C-terminal)) | percent of control binding remaining (lower = stronger binding) [7] | percent of control binding remaining (lower = stronger binding) [8] | percent of control binding remaining (lower = stronger binding) [9] | percent of control binding remaining (lower = stronger binding) [10] | percent of control binding remaining (lower = stronger binding) [11] | percent of control binding remaining (lower = stronger binding) [13] | percent of control binding remaining (lower = stronger binding) [14] | percent of control binding remaining (lower = stronger binding) [15] | percent of control binding remaining (lower = stronger binding) [16] | percent of control binding remaining (lower = stronger binding) [17] | percent of control binding remaining (lower = stronger binding) [18] | percent of control binding remaining (lower = stronger binding) [19] | % change compared to control [20] | further results
C=CC(=O)N1CC[C@H](Nc2nc(CN3CCOCC3)cc(Nc3ncc(C(=O)Nc4c(C)cccc4C)s3)n2)C1 [Example I-2] | 0.2% | 100% | 93% | 100% | 95% | 98% | 94% | 0% | 97% | 98% | 95% | 92% | 100% | 100% | 100% | 100% | 95% | 95% | 100% | 100% | percent of control binding remaining (lower = stronger binding) ([12]; ABL1(F317L)-nonphosphorylated): 0%; percent of control binding remaining (lower = stronger binding) ([12]; ABL1(F317L)-phosphorylated): 0.5%; percent of control binding remaining (lower = stronger binding) [21]: 51%; percent of control binding remaining (lower = stronger binding) [22]: 76%; percent of control binding remaining (lower = stronger binding) [23]: 91%; percent of control binding remaining (lower = stronger binding) [24]: 96%; percent of control binding remaining (lower = stronger binding) [25]: 99%; percent of control binding remaining (lower = stronger binding) [26]: 100%; percent of control binding remaining (lower = stronger binding) [27]: 100%; percent of control binding remaining (lower = stronger binding) [28]: 100%; percent of control binding remaining (lower = stronger binding) [29]: 36%; percent of control binding remaining (lower = stronger binding) [30]: 84%; percent of control binding remaining (lower = stronger binding) [31]: 65%; percent of control binding remaining (lower = stronger binding) [32]: 92%; percent of control binding remaining (lower = stronger binding) [33]: 100%; percent of control binding remaining (lower = stronger binding) [34]: 100%; percent of control binding remaining (lower = stronger binding) [35]: 48%; percent of control binding remaining (lower = stronger binding) [36]: 0%
C=CC(=O)N1CC[C@H](Nc2nccc(Nc3ncc(C(=O)Nc4c(C)cccc4C)s3)n2)C1 [Example I-3] | 0.6% | 97% | 95% | 95% | 100% | 88% | 52% | 0% | 94% | 99% | 90% | 97% | 97% | 95% | 100% | 100% | 92% | 100% | 97% | 100% | % change compared to control ([12]; ABL1(F317L)-nonphosphorylated): 0.5%; % change compared to control ([12]; ABL1(F317L)-phosphorylated): 2%; percent of control binding remaining (lower = stronger binding) [21]: 61%; percent of control binding remaining (lower = stronger binding) [22]: 82%; percent of control binding remaining (lower = stronger binding) [23]: 63%; % change compared to control [24]: 76%; percent of control binding remaining (lower = stronger binding) [25]: 96%; percent of control binding remaining (lower = stronger binding) [26]: 100%; percent of control binding remaining (lower = stronger binding) [27]: 100%; percent of control binding remaining (lower = stronger binding) [28]: 100%; percent of control binding remaining (lower = stronger binding) [29]: 50%; percent of control binding remaining (lower = stronger binding) [30]: 100%; percent of control binding remaining (lower = stronger binding) [31]: 82%; percent of control binding remaining (lower = stronger binding) [32]: 99%; percent of control binding remaining (lower = stronger binding) [33]: 90%; percent of control binding remaining (lower = stronger binding) [34]: 100%; percent of control binding remaining (lower = stronger binding) [35]: 42%; percent of control binding remaining (lower = stronger binding) [36]: 0.75%
